This is an account of results in paper PMC4494873 (Bioorganic & medicinal chemistry letters, 2015).

SMILES strings stand for the structures. “Also recorded” adds a separate entry of the source. A value given as a limit tells only on which side of the number the result lay.

As usually defined, the Kd is the free concentration of one partner at which half of the binding sites on the other are occupied at equilibrium, for simple one-to-one binding. The term IC50 denotes the concentration that inhibits the measured activity by half.

Data set [1] concerns HSV-2 186. Nature of the data set: Viral replication yield reduction assay. In kind it is cell-based, herpes simplex virus type-2 (HSV-2). Conditions: selectivity index, Vero.
Data set [2] relates to Vero cells. Nature of the data set: Cytotoxicity in Vero cells.
The test system of data set [3] is HIV-1 virus. Nature of the data set: Anti-HIV activity: Jurkat cells infected with HIV-1, MTT assay and RT assay. Conditions: 1 μg/mL or 5 μg/mL, compared with DMSO and AZT. In kind it is cell-based. (Formazan colour is commonly taken as a measure of viable cells.)
The target of data set [4] is human serum albumin (HSA) (Homo sapiens, UniProt P02768). Kind of data set: Fluorescence titration with HSA. In kind it is binding.
The subject of data set [5] is HSA. Particulars: betulinic acid 0.01−0.1 mM, HSA 0.025 mM, fluorescence excitation at 285 nm; ref [34]; cited from earlier work.
The conditions of data set [6]: cited from earlier work.
Data set [7] deals with Multiple HSV-2 (including 186). Conditions: Vero, multiple HSV-2 isolates including 186; ref [32], [33]; cited from earlier work.

human serum albumin (HSA), sequence (P02768 25-609): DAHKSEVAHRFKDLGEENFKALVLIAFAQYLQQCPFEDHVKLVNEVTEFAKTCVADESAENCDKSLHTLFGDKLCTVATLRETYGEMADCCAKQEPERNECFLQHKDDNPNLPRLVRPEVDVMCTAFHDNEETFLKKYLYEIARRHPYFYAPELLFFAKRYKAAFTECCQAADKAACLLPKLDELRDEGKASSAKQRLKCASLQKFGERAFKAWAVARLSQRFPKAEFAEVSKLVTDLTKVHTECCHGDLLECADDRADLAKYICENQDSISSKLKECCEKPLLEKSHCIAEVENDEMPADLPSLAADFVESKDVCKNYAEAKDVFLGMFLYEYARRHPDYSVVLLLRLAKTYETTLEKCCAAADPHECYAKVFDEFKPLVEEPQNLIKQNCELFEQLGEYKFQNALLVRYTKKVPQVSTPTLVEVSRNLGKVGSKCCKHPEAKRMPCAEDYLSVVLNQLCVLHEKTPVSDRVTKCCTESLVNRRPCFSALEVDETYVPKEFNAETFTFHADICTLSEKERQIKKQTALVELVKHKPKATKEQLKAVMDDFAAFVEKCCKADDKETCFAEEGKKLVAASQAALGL

On to `C=C(C)[C@@H]1CC[C@]2(C(=O)O)CC[C@]3(C)[C@H](CC[C@@H]4[C@@]5(C)CC[C@H](O)C(C)(C)[C@@H]5CC[C@]43C)[C@@H]12` [Compound 1, 3β-hydroxy-lup-20(29)-en-28-oic acid], for which the SI in data set [1] was more than 62.5. Besides, in data set [2], the “cellular cytotoxicity (in words)” value is listed as “low cytotoxicity; also recorded: minimal cellular cytotoxicity”. Further, the “inhibitory activity of HIV-1 RT (in words)” value in data set [3] was “no inhibitory activity”. For the same compound, the equilibrium dissociation constant (Kd) was 4500 nM in data set [4] (Kd (285 nm), fluorescence excitation at 285 nm) and 1300 nM in data set [4] (Kd (295 nm), fluorescence excitation at 295 nm). In data set [5], the “binding constant with HSA” value was 1.685e+06 M⁻¹. Further, the “solubility in DMSO” value in data set [6] (25 °C, ref [23]) is recorded as 5 % (w/v). Further, in data set [6] (25 °C, ref [23]), the solubility in ethanol is on record as 1 % (w/v). Further, the solubility in water entry in data set [6] (room temperature, ref [22]) is recorded as “about 0.02 μg mL^−1”.
In the case of `Nc1nc2c(ncn2COCCO)c(=O)[nH]1` [Acyclovir], in data set [7], the 50% inhibitory concentration (IC50) was 100 to 10000 nM.
